Test results from patent US6852733B2, “Sodium-hydrogen exchanger type 1 inhibitor” (Pfizer Inc., priority 2000, dated 2005).

Legend:
[1] = Identification of metabolite in human plasma samples by LC/MS/MS and LC/NMR; assay type: in vivo; details: human plasma after intravenous administration of 5-cyclopropyl-1-(quinolin-5-yl)-1H-pyrazole-4-carbonyl]guanidine
From the text: It was identified from samples of human plasma obtained after intravenous administration of 5-cyclopropyl-1-(quinolin-5-yl)-1H-pyrazole-4-carbonyl]guanidine to human subjects. The structure of this compound was independently verified by chemical synthesis. In another aspect of this invention [5-cyclopropyl-1-(2-quinolon-5-yl)-1H-pyrazole-4-carbonyl]guanidine may be prepared by administering [5-cyclopropyl-1-(quinolin-5-yl)-1H-pyrazole-4-carbonyl]guanidine to a human and isolating the desired metabolite from the plasma. Alternatively, the metabolite need not be isolated from the human since it is produced in vivo. […]
An aliquot (100 μL or 50 μL) of the concentrated sample was injected onto an LC/MS/MS instrument equipped with a Zorbax Rx-C8 4.6×150 mm column, analyzed on PE Sciex API 2000 or Finnigan LCQ mass spectrometer and monitored by UV detector at 254 nm. […] Under these LC conditions a metabolite was detected at a retention time of 11.8 minutes ([5-cyclopropyl-1-(quinolin-5-yl)-1H-pyrazole-4-carbonyl]guanidine was detected at 13.7 minutes).
The salts were removed from the above concentrated sample by solid phase extraction. […] 50 μL of this sample was injected onto an LC/NMR instrument equipped with a Zorbax Rx-C8 4.6×150 mm column, analyzed on a Bruker 500 MHz NMR spectrometer and monitored by UV detector at 235 nm. […]

human NHE-1 = human NHE-1 (Homo sapiens, UniProt P19634); experiment: Measurement of human NHE-1 inhibitory activity (NHE-mediated recovery of intracellular pH, BCECF fluorescence)
Sequence of human NHE-1 (P19634 whole entry): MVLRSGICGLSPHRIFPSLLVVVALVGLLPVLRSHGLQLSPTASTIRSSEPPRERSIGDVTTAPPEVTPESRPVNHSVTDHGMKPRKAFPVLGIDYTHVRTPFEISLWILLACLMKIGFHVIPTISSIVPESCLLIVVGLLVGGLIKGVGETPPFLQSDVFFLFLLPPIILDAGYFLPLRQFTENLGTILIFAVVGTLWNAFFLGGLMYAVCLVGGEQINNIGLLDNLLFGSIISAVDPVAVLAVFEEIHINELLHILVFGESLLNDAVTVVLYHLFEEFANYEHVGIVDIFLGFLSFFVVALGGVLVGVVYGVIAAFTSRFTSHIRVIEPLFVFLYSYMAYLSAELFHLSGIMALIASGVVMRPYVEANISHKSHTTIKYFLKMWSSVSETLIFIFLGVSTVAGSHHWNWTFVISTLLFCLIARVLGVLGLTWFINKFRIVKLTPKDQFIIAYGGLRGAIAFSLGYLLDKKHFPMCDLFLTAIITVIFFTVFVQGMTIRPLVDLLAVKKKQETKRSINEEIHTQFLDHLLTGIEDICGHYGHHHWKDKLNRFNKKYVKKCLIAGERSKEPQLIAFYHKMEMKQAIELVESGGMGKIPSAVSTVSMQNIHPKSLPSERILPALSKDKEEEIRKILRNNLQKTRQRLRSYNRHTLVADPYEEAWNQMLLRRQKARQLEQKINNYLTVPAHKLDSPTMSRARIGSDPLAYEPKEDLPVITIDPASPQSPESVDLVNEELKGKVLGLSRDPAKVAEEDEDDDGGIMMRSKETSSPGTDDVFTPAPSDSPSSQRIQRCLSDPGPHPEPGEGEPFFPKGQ
Experimental: Methodologies for measurement of human NHE-1 activity and inhibitor potency are based on those published by Watson et al., Am. J. Physiol., 24:G229-G238, 1991), where NHE-mediated recovery of intracellular pH is measured following intracellular acidification. Thus, fibroblasts stably expressing human NHE-1 (Counillon, L. et al., Mol. Pharmacol., 44:1041-1045 (1993) are plated onto collagen coated 96 well plates (50,000/well) and grown to confluence in growth media (DMEM high glucose, 10% fetal bovine serum, 50 u/ml penicillin and streptomycin). Confluent plates are incubated for 30 min at 37° C. with the pH sensitive fluorescent probe BCECF (5 μM; Molecular Probes, Eugene, Oreg.). BCECF loaded cells are incubated for 30 min at 37° C. in acid loading media (70 mM choline chloride, 50 mM NHCl4, 5 mM KCl, 1 mM MgCl2, 1.8 mM CaCl2, 5 mM glucose, 10 mM HEPES, pH 7.5), and then placed in a Fluorescent Imaging Plate Reader (Molecular Devices, CA). BCECF fluorescence is monitored using excitation and emission wavelengths of 485 nm and 525 nM, respectively. Intracellular acidification is initiated via rapid replacement of acid loading media with recovery media (120 mM NaCl, 5 mM KCl, 1 mM MgCl2, 1.8 mM CaCl2, 5 mM glucose, 10 mM HEPES, pH 7.5)±test compound, and NHE-mediated recovery of intracellular pH is monitored as the subsequent time-dependent increase BCECF fluorescence.

metabolite identification in human plasma [1]: human metabolite | IC50 (human NHE-1): 0.2 µM
Structure (SMILES): N=C(N)NC(=O)c1cnn(-c2cccc3[nH]c(=O)ccc23)c1C1CC1 [Formula I, [5-cyclopropyl-1-(2-quinolon-5-yl)-1H-pyrazole-4-carbonyl]guanidine]
